In brackets after ≈: the same amount, converted by molar mass.
system: THP-1; assay: Inhibition of LPS-stimulated TNFalpha production in THP1 cells; format: functional, cell-based; details: Homo sapiens

SMILES | EC50
O=c1[nH]c2cc(Nc3ccccc3)ccc2n1C1CCNC1 (configuration not stated) | 1100 nM
O=c1[nH]c2cc(Nc3ccccc3)ccc2n1Cc1c(F)cccc1F | 220 nM
O=c1[nH]c2cc(Nc3ccc(F)c(F)c3)ccc2n1CC1CCCCC1 | 420 nM
Cc1ccccc1Nc1cc2[nH]c(=O)n(CC3CCCCC3)c2cc1N1CCN(C)CC1 | 180 nM
O=C(c1ccccc1)c1ccc2[nH]c(=O)[nH]c2c1 | > 5000 nM
O=C(c1ccccc1)c1ccc2c(c1)[nH]c(=O)n2CC1CCCCC1 | 880 nM
O=c1[nH]c2cc(Nc3ccccc3)ccc2n1CC1CCCCC1 | 270 nM
N=C(N)c1ccc(Cn2c(=O)[nH]c3cc(C(=O)c4ccccc4)ccc32)cc1 | > 10000 nM
O=c1[nH]c2cc(Nc3cccc(F)c3)ccc2n1CC1CCCCC1 | 190 nM
Cn1c(=O)[nH]c2cc(C(=O)c3ccccc3)ccc21 | > 5000 nM
O=c1[nH]c2cc(Nc3cccc(C(F)(F)F)c3)ccc2n1CC1CCCCC1 | 2300 nM
O=C(c1ccccc1)c1ccc2c(c1)[nH]c(=O)n2Cc1ccccc1 | 1000 nM
O=c1[nH]c2cc(Oc3ccccc3)ccc2n1CC1CCCCC1 | 250 nM
O=c1[nH]c2cc(Nc3cc(Cl)cc(Cl)c3)ccc2n1CC1CCCCC1 | > 10000 nM
O=c1[nH]c2cc(Nc3ccccc3)ccc2n1Cc1ccccc1 | 320 nM
CC(C)(CN)n1c(=O)[nH]c2cc(Nc3ccccc3)ccc21 | 3400 nM

These reach a lower EC50. Values come first.

EC50 | SMILES
64 nM | Cc1ccccc1Nc1ccc2c(c1)[nH]c(=O)n2CC1CCCCC1
150 nM | O=c1[nH]c2cc(Nc3ccccc3)c(N3CCNCC3)cc2n1CC1CCCCC1
74 nM | CC(C)(C)n1c(=O)[nH]c2cc(Nc3ccccc3)ccc21
46 nM | O=c1[nH]c2cc(Nc3ccc(F)cc3F)ccc2n1CC1CCCCC1
74 nM | O=c1[nH]c2cc(Nc3ccc(F)cc3)ccc2n1CC1CCCCC1
150 nM | CN1CCN(c2cc3c(cc2Nc2ccccc2)[nH]c(=O)n3CC2CCCCC2)CC1
66 nM | O=c1[nH]c2cc(Nc3ccccc3F)ccc2n1CC1CCCCC1
150 nM | O=c1[nH]c2cc(Nc3ccccc3)ccc2n1C1CCCC1

system: not listed separately; assay: Aqueous solubility at pH 7.4; format: physicochemical; details: not given

solubility | SMILES
0.2 µM (≈ 0.0643 µg/mL) | O=c1[nH]c2cc(Nc3ccccc3)ccc2n1CC1CCCCC1
5.7 µM (≈ 2.39 µg/mL) | CN1CCN(c2cc3c(cc2Nc2ccccc2)[nH]c(=O)n3CC2CCCCC2)CC1

target: Mitogen-activated protein kinase 9 (Homo sapiens, UniProt P45984); assay: Inhibition of Jnk2alpha2; details: not given
Sequence (P45984 whole entry): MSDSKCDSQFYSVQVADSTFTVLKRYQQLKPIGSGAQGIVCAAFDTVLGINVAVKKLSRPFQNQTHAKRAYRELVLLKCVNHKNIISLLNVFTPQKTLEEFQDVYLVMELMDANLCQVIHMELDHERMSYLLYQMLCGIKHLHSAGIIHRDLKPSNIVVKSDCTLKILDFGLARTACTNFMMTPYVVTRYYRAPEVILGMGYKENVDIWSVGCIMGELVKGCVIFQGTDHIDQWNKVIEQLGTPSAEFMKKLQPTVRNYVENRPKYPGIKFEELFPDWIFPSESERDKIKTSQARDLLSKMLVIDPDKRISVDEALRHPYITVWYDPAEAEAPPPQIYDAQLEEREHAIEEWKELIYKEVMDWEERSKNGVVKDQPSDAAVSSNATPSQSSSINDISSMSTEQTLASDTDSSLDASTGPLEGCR

IC50 | SMILES
5500 nM | O=c1[nH]c2cc(Nc3ccc(F)cc3F)ccc2n1CC1CCCCC1
